Reference: publication PMC10253817, “Design, Pharmacological Characterization, and Molecular Docking of Minimalist Peptidomimetic Antagonists of α4β1 Integrin” (International Journal of Molecular Sciences, 2023)

Experiments:
Type in all cases: cell-based
αMβ2 integrin = molecular target: T1, αMβ2 integrin (Homo sapiens, UniProt P05107+P11215); test: αMβ2 integrin-mediated HL60 cell adhesion to Fg; settings: HL60 cell adhesion to Fg (10 μg/mL), mean ± SD; for IC50: antagonists
T1 construct: HL60 cells, mainly expressing the leukocyte integrin αMβ2; host or cells: HL60 (PMA-treated)
Description: (§1) To this purpose, the ability of the best peptidomimetics to modulate cell adhesion mediated by integrins other than α4β1 was evaluated in HL60 cells, mainly expressing the leukocyte integrin αMβ2, and on K562 cells, mainly expressing α5β1, which shares a β1 subunit with the heterodimer α4β1. […] In contrast, 13 was a moderate promoter of cell adhesion mediated by αMβ2 integrin, behaving as an agonist. Regarding α5β1 integrin, none of the peptidomimetics employed were able to modulate K562 cell adhesion, thus being shown to be completely ineffective toward α5β1 integrin. The reference compound DS-70 was ineffective toward both αMβ2 and α5β1 integrins under the same experimental conditions (Table 3).
(§2) The assays were performed as previously described. Briefly, regarding adhesion assays on Jurkat E6.1 or HL-60 cells, black 96-well plates (Corning Costar) were coated overnight at 4 °C with FN or Fg (10 μg/mL) or VCAM-1 (2 μg/mL) in order to investigate α4β1 integrin-mediated cell adhesion. To avoid any kind of unspecific binding, plates were incubated with 100 μL/well of blocking solution (1% BSA in HBSS) for 30 min at 37 °C. Cells were counted, stained with the CellTracker green CMFDA (12.5 μM, 30 min at 37 °C, Life Technologies Italia, Milan, Italy) and after three washes, were preincubated with increasing concentrations of new compounds (10^−10–10^−4 M) or with the vehicle (methanol) for 30 min at 37 °C.
(§3) Then, cells were plated (500,000/well) on coated wells and incubated for 30 min at 37 °C. Afterwards nonadherent cells were removed via washing with a blocking solution, and the remaining adhered cells were lysed with 0.5% Triton X-100 in PBS (30 min at 4 °C). Green fluorescence was measured (Ex485 nm/Em535 nm) using an EnSpire Multimode Plate Reader (PerkinElmer, Waltham, MA, USA).
(§4) In both types of adhesion assay, the number of adherent cells was determined via comparison with a standard curve made in the same plate. Experiments were carried out in quadruplicate and repeated at least three times. Data analysis and EC50 or IC50 values were calculated using GraphPad Prism 9.5.1 (GraphPad Software, San Diego, CA, USA).
Cell culture. Jurkat E6.1 (expressing both α4β1 and αLβ2 integrin), K562 (expressing α5β1 integrin) and HL60 (expressing α Mβ2 integrin) cell lines were purchased from ATCC (Rockville, MD, USA); these cells were routinely cultured in RPMI-1640 (Life Technologies) supplemented with 1% glutamine and 10% fetal bovine serum (FBS). Cells were grown at 37 °C under 5% CO 2 humidified atmosphere. […]

α4β1 integrin = molecular target: T2, α4β1 integrin (Homo sapiens, UniProt P05556+P13612); test: α4β1 integrin-mediated Jurkat cell adhesion to VCAM-1; settings: Jurkat cell adhesion to VCAM-1 (2 μg/mL); antag. = reduced cell adhesion; mean ± SD
T2 construct: Jurkat E6.1 cell line, which endogenously expresses α4β1 integrin; host or cells: Jurkat E6.1
Description: as §1, §2, §3, §4

JNK = test: Western blot, FN-induced JNK phosphorylation in Jurkat E6.1 cells; settings: Jurkat E6.1 cells pre-treated with 10^−7, 10^−8, 10^−9 M, then FN (10 µg/mL) 30 min
Description: To this purpose, Jurkat E6.1 cells were pre-treated with different concentrations (10^−7, 10^−8, 10^−9 M) of the compounds and then exposed to FN (10 µg/mL) for 30 min. […] In addition, the effects observed on intracellular signaling were concentration-dependent, except for compound 13 on AKT activation.
Western blot analysis was performed as previously described, with the following modifications. […] For integrin antagonists, JurkatE6.1 cells were subsequently incubated with FN (10 μg/mL) at 37 °C for 30 min. At the end of the incubation period, Jurkat E6.1 cells were lysed on ice using T-PER® (Tissue Protein Extraction Reagent, Life Technologies Italia, Milan, Italy), supplemented with a phosphatase inhibitor cocktail. Protein extracts were quantified using a BCA Protein Assay (Pierce, Rockford, IL, USA). The proteins from the cytoplasmatic extract were denatured at 95 °C for 3 min, then equal amounts of protein samples (30–50 μg) were loaded and separated via 12% SDS-PAGE. Proteins were transferred onto a nitrocellulose membrane (Biorad, Hercules, CA, USA), which was blocked with 5% nonfat milk in a Tris-buffered saline (10 mM Tris-HCl, pH 8, containing 150 mM NaCl) containing 0.1% Tween 20 for 1 h at room temperature. Membranes were stained overnight at 4 °C with anti-actin antibody (1:5000, Merck Life Science, Milan, Italy) or with anti-phospho-ERK1/2, anti-total ERK1/2, anti-phospho-AKT, anti-total-AKT, or anti-phospho-JNK antibodies (1:1000; Cell Signaling Technology, Danvers, MA, USA). The membranes were incubated with anti-rabbit peroxidase-conjugated secondary antibodies at a dilution of 1:8000. Blots were developed with a SuperSignal West Pico chemiluminescent substrate. Protocols for digital image acquisition and analysis have previously been described.

T1 sequence (P05107 23-769, other chains not shown): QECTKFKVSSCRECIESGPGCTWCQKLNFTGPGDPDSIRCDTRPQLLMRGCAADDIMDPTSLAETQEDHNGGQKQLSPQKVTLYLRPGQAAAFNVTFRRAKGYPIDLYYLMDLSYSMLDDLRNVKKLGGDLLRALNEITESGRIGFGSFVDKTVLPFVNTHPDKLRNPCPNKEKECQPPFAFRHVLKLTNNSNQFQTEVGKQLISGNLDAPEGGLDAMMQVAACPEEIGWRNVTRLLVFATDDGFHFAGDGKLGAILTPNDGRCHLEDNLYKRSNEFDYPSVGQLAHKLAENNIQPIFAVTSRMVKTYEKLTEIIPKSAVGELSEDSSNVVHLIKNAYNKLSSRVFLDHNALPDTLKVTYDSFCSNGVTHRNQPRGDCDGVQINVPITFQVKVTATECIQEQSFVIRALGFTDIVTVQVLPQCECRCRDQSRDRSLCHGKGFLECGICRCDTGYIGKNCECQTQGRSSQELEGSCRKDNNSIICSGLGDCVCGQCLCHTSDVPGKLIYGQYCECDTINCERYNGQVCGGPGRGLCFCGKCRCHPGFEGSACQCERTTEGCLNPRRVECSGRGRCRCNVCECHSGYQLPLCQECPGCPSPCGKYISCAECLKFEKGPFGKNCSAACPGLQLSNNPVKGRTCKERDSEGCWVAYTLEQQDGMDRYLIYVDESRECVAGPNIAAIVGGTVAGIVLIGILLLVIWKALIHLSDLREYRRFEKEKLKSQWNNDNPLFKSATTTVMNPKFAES
T2 sequence (P13612 34-1032): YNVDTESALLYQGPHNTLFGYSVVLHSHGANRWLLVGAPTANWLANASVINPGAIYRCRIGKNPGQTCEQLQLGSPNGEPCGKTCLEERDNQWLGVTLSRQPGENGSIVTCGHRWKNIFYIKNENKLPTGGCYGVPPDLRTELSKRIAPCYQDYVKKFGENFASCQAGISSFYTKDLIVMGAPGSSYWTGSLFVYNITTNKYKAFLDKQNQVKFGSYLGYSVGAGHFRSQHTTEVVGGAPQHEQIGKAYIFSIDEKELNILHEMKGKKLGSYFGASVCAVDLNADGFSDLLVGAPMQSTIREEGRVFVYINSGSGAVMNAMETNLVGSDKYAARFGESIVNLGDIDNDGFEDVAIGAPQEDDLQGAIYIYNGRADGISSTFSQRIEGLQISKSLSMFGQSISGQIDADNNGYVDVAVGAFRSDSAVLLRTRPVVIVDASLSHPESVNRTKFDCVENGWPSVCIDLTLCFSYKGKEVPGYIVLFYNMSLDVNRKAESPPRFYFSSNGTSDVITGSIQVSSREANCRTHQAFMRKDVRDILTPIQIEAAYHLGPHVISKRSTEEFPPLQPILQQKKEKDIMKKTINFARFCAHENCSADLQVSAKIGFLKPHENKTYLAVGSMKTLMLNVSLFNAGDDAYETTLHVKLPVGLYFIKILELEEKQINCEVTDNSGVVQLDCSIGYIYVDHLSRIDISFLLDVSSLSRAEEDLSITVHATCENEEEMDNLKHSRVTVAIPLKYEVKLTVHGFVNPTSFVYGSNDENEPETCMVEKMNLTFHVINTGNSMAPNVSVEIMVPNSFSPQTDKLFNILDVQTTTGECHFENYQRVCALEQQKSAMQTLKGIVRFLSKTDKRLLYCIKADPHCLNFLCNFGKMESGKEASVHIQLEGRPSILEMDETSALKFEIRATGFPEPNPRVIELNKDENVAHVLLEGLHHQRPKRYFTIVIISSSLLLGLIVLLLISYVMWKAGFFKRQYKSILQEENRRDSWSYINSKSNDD
T2 sequence (P05556 21-798): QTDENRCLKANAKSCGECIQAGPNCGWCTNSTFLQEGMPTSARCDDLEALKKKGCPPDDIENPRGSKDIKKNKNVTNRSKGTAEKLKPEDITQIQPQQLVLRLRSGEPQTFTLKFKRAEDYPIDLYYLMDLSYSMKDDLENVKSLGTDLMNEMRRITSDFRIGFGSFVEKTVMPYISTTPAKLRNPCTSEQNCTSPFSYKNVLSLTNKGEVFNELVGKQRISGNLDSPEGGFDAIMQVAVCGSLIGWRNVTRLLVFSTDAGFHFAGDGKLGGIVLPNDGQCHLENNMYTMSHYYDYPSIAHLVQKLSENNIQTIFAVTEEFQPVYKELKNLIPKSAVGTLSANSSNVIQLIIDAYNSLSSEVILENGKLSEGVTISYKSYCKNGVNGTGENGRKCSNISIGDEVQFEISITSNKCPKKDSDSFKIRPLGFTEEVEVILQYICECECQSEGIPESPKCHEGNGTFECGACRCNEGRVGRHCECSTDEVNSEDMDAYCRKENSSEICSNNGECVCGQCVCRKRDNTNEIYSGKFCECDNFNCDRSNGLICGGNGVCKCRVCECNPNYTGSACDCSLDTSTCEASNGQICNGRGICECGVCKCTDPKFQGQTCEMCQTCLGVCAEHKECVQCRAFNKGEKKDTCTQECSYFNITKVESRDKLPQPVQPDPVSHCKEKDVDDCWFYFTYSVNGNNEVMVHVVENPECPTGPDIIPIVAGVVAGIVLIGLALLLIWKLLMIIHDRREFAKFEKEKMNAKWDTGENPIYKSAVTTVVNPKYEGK

EC50 (αMβ2 integrin; agonist = increased number of adherent cells) [nM] | IC50 (α4β1 integrin) [nM] | IC50 (αMβ2 integrin) [nM] | Compound | FN-induced JNK phosphorylation (JNK)
285 | 879 |  | Cc1ccccc1NC(=O)Nc1ccc(CNC(=O)C[C@@H](C)NC(=O)CC(=O)O)cc1 [compound 13] | did not counteract
 | 975 | 76 | CC(=O)N[C@@H](CNC(=O)Cc1ccc(NC(=O)Nc2ccccc2C)cc1)C(=O)NCC(=O)O [compound 3] | did not counteract
 | 54 | > 5000 | CCCNC(=O)[C@@H](CC(=O)NCC(=O)O)NC(=O)Cc1ccc(NC(=O)Nc2ccccc2C)cc1 [compound 8] | able to significantly prevent
